How the values were obtained:
Type in all cases: in vivo
Conditions in all cases: 14th day after application
[1] = test system: velvetleaf (Abutilon theophrasti MEDIC.); assay: Test Example 2: soil application on the day after sowing, growth inhibition rate on 14th day
Summary of the method: (§1)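 Field soil in 1/300,000 ha pots was sown, and the next day compounds formulated as wettable powders or emulsifiable concentrates were diluted in water (1,000 L/ha) and soil-sprayed at the prescribed active ingredient rates. Growth inhibition was scored visually 14 days later, 0 (untreated) to 100 (complete kill).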

[2] = test system: prickly sida (Sida spinosa L.); assay: as above
Summary of the method: as §1

[3] = test system: green foxtail (Setaria viridis L.); assay: as above
Summary of the method: as §1

[4] = test system: redroot pigweed (Amaranthus retroflexus L.); assay: as above
Summary of the method: as §1

[5] = test system: wheat (Triticum aestivum L.); assay: as above
Summary of the method: as §1

rice (Oryza sativa L.) [6] = assay: as above
Summary of the method: as §1

corn (Zea mays L.) [7] = assay: as above
Summary of the method: as §1

[8] = test system: crabgrass (Digitaris sanquinalis L.); assay: as above
Summary of the method: as §1

[9] = test system: soybean (Glycine max Merr.); assay: as above
Summary of the method: as §1

[10] = test system: barnyardgrass (Echinochloa crus-qalli L.); assay: as above
Summary of the method: as §1

[11] = test system: wild oat (Avena fatua L.); assay: Test Example 1: foliar treatment, growth inhibition rate on 14th day
Summary of the method: (§2)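 Sow seeds in upland soil pots; at target leaf stage (wild oat 0.4–1.2, rice 0.2–2.7, foxtail 0.5–3.2, soybean primary leaf) spray formulated compound in water, 1,000 L/ha, 0.1 vol % surfactant. Score inhibition visually at day 14, 0–100%.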

[12] = test system: italian ryegrass (Lolium multiflorum Lam.); assay: as above
Summary of the method: (§3)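 Visual 0–100% inhibition scoring (100 = complete kill) at 14 days after foliar treatment of soil-grown seedlings at species-specific leaf stages, with the compound sprayed as a wettable powder or emulsifiable concentrate dilution.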

[13] = test system: green foxtail (Setaria viridis L.); assay: as above
Summary of the method: as §2

[14] = test system: redroot pigweed (Amaranthus retroflexus L.); assay: as above
Summary of the method: as §3

[15] = test system: wheat (Triticum aestivum L.); assay: as above
Summary of the method: as §3

rice (Oryza sativa L.) [16] = assay: as above
Summary of the method: as §2

corn (Zea mays L.) [17] = assay: as above
Summary of the method: as §3

[18] = test system: crabgrass (Digitaria sanquinalis L.); assay: as above
Summary of the method: as §3

[19] = test system: soybean (Glycine max Merr.); assay: as above
Summary of the method: as §2

[20] = test system: barnyardgrass (Echinochloa crus-qalli L.); assay: as above
Summary of the method: as §3

[21] = active ingredient amount 31 g/ha
[22] = active ingredient amount 500 g/ha
[23] = active ingredient amount 31 g/ha, visual, 0 = non-treated, 100 = complete kill

| Structure (SMILES) | Growth inhibition rate (%) Velvetleaf [1, 21] [%] | Growth inhibition rate (%) Prickly sida [2, 21] [%] | Growth inhibition rate (%) Green foxtail [3, 21] [%] | Growth inhibition rate (%) Redroot pigweed [4, 21] [%] | Growth inhibition rate (%) Wheat [5, 21] [%] | Growth inhibition rate (%) Rice (rice (Oryza sativa L.) [6]; [21]) [%] | Growth inhibition rate (%) Corn (corn (Zea mays L.) [7]; [21]) [%] | Growth inhibition rate (%) Crabgrass [8, 21] [%] | Growth inhibition rate (%) Soybean [9, 21] [%] | Growth inhibition rate (%) Barnyardgrass [10, 21] [%] | Growth inhibition rate (%) Wild oat [11, 21] [%] | Growth inhibition rate (%) Italian ryegrass [12, 21] [%] | Growth inhibition rate (%) Green foxtail [13, 21] [%] | Growth inhibition rate (%) Redroot pigweed [14, 21] [%] | Growth inhibition rate (%) Wheat [15, 21] [%] | Growth inhibition rate (%) Rice (rice (Oryza sativa L.) [16]; [21]) [%] | Growth inhibition rate (%) Corn (corn (Zea mays L.) [17]; [21]) [%] | Growth inhibition rate (%) Crabgrass [18, 21] [%] | Growth inhibition rate (%) Soybean [19, 21] [%] | Growth inhibition rate (%) Barnyardgrass [20, 21] [%] | also measured |
| --- | --- | --- | --- | --- | --- | --- | --- | --- | --- | --- | --- | --- | --- | --- | --- | --- | --- | --- | --- | --- | --- |
| CC(=O)Oc1cnn(CC2CC2)c(=O)c1-c1cccc(Oc2ncc(C(F)(F)F)cc2Cl)c1C [1-170] | 0 | 0 | 98 | 0 | 0 | 0 | 0 | 93 | 0 | 75 | 40 | 30 | 98 | 10 | 0 | 40 | 99 | 99 | 0 | 95 |  |
| CC(=O)Oc1c(C)nn(C)c(=O)c1-c1cc(Oc2ccc(C(F)(F)F)cn2)ccc1C [Compound 2-61] | 0 | 0 | 98 | 0 | 0 | 0 | 0 | 50 | 0 | 65 | 98 | 93 | 95 | 0 | 95 | 90 | 95 | 78 | 0 | 99 |  |
| CCc1ccc(Oc2ncc(C(F)(F)F)cc2Cl)cc1-c1c(OC(C)=O)c(C)nn(C)c1=O [1-45] | 0 | 0 | 100 | 0 | 20 | 30 | 88 | 100 | 0 | 100 | 100 | 100 | 100 | 10 | 99 | 99 | 100 | 100 | 10 | 100 |  |
| CC(=O)Oc1c(C)nn(C)c(=O)c1-c1cc(Oc2cnc3ccccc3c2)ccc1C [Compound 2-146] |  |  |  |  |  |  |  |  |  |  |  |  |  |  |  |  |  |  |  |  | Growth inhibition rate (%) Velvetleaf [1, 22]: 50%; Growth inhibition rate (%) Prickly sida [2, 22]: 0%; Growth inhibition rate (%) Green foxtail [3, 22]: 100%; Growth inhibition rate (%) Redroot pigweed [4, 22]: 0%; Growth inhibition rate (%) Wheat [5, 22]: 0%; Growth inhibition rate (%) Rice (rice (Oryza sativa L.) [6]; [22]): 85%; Growth inhibition rate (%) Corn (corn (Zea mays L.) [7]; [22]): 20%; Growth inhibition rate (%) Crabgrass [8, 22]: 100%; Growth inhibition rate (%) Soybean [9, 22]: 0%; Growth inhibition rate (%) Barnyardgrass [10, 22]: 100%; Growth inhibition rate (%) Wild oat [11, 22]: 80%; Growth inhibition rate (%) Italian ryegrass [12, 22]: 20%; Growth inhibition rate (%) Green foxtail [13, 22]: 95%; Growth inhibition rate (%) Redroot pigweed [14, 22]: 0%; Growth inhibition rate (%) Wheat [15, 22]: 50%; Growth inhibition rate (%) Rice (rice (Oryza sativa L.) [16]; [22]): 75%; Growth inhibition rate (%) Corn (corn (Zea mays L.) [17]; [22]): 85%; Growth inhibition rate (%) Crabgrass [18, 22]: 95%; Growth inhibition rate (%) Soybean [19, 22]: 10%; Growth inhibition rate (%) Barnyardgrass [20, 22]: 99% |
| CCOC(=O)C(=O)Oc1c(C)nn(C)c(=O)c1-c1cc(Oc2cnc3cc(Cl)ccc3n2)ccc1C [Compound 3-79] | 0 | 0 | 100 | 0 | 0 | 0 | 0 | 95 | 0 | 100 |  |  |  |  |  |  |  |  |  |  | Growth inhibition rate (%) Wild oat [11, 23]: 98%; Growth inhibition rate (%) Italian ryegrass [12, 23]: 99%; Growth inhibition rate (%) Green foxtail [13, 23]: 100%; Growth inhibition rate (%) Redroot pigweed [14, 23]: 0%; Growth inhibition rate (%) Wheat [15, 23]: 93%; Growth inhibition rate (%) Rice (rice (Oryza sativa L.) [16]; [23]): 99%; Growth inhibition rate (%) Corn (corn (Zea mays L.) [17]; [23]): 50%; Growth inhibition rate (%) Crabgrass [18, 23]: 98%; Growth inhibition rate (%) Soybean [19, 23]: 30%; Growth inhibition rate (%) Barnyardgrass [20, 23]: 100% |
| Cc1ccc(Oc2ncc(C(F)(F)F)cc2F)cc1-c1c(O)c(C)nn(C)c1=O [Compound 2-5] | 0 | 0 | 100 | 0 | 30 | 80 | 65 | 100 | 0 | 100 | 95 | 95 | 100 | 20 | 40 | 85 | 75 | 99 | 0 | 100 |  |
| Cc1ccc(Oc2nc3ccc(Cl)cc3s2)cc1-c1c(O)c(C)nn(C)c1=O [Compound 2-10] | 0 | 0 | 85 | 0 | 0 | 40 | 30 | 50 | 0 | 95 | 10 | 10 | 99 | 0 | 10 | 0 | 0 | 40 | 30 | 99 |  |
